Reference: ChEMBL document CHEMBL3860078, “Thioflavones as novel neuroprotective agents” (Bioorg Med Chem, 2016)
Calls of active or inactive are those of the source. The calls are words filed in the database; no cut-off is given here.

Columns and labels:
[1] = Neuroprotective activity against H2O2-induced oxidative stress in human SH-SY5Y cells assessed as cell viability at 3 uM preincubated for 24 hrs followed by H2O2 addition for 1 hr measured after 17 hrs by MTT assay relative to control; assay type: functional; settings: read-out: Activity
[2] = Neurotoxicity against human SH-SY5Y cells assessed as reduction in cell viability at 3 to 10 uM after 24 hrs by MTT assay; assay type: toxicity, cell-based
[3] = Neuroprotective activity in human SH-SY5Y cells assessed as protection against H2O2-induced oxidative stress at 0.3 uM preincubated for 24 hrs followed by H2O2 addition for 1 hr measured after 17 hrs by MTT assay relative to control; assay type: functional, cell-based
[4] = Antioxidant activity assessed as DPPH free radical scavenging activity at 3 uM after 30 mins incubation in dark; assay type: functional
[5] = Metal chelating activity assessed as Fe2+-compound complex fromation at 3 uM incubated for 5 mins in presence of ferrous chloride hexahydrate followed by ferrozine addition measured after 10 mins; assay type: physicochemical
[6] = molecular target: Mitogen-activated protein kinase; ERK1/ERK2 (Homo sapiens) (UniProt P27361+P28482); test: Induction of ERK1/2 phosphorylation in human SH-SY5Y cells at 3 uM preincubated for 24 hrs followed by H2O2 addition for 1 hr by pathscan sandwich immunoassay; assay type: cell-based
Mitogen-activated protein kinase; ERK1/ERK2 (Homo sapiens), sequence (P27361 whole entry, looked up): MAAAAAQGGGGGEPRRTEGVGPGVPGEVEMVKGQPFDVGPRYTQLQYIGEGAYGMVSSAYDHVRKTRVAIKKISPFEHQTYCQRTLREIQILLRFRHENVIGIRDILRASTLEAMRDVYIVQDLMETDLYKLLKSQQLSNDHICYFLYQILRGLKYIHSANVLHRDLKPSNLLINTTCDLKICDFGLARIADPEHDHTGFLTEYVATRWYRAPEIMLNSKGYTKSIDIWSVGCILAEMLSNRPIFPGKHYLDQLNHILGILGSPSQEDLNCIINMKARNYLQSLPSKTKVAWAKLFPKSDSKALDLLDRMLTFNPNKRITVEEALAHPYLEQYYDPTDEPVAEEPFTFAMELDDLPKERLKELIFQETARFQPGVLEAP
Mitogen-activated protein kinase; ERK1/ERK2 (Homo sapiens), sequence (P28482 whole entry, looked up): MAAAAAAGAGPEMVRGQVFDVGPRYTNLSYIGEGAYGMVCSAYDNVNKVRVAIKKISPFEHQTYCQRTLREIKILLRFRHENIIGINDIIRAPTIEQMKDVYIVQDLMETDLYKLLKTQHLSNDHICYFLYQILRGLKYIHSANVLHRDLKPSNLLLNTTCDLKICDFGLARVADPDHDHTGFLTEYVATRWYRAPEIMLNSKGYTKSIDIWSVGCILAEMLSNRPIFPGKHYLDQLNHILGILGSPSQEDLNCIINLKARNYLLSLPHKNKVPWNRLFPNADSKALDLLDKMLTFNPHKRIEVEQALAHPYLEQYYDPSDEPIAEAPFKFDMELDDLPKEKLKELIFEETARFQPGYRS

[7] = molecular target: Serine/threonine-protein kinase mTOR (Homo sapiens) (UniProt P42345); test: Induction of mTOR phosphorylation in human SH-SY5Y cells at 3 uM preincubated for 24 hrs followed by H2O2 addition for 1 hr by pathscan sandwich immunoassay; assay type: cell-based
SH-SY5Y = test: Induction of AMPKalpha phosphorylation in human SH-SY5Y cells at 3 uM preincubated for 24 hrs followed by H2O2 addition for 1 hr by pathscan sandwich immunoassay; assay type: cell-based
[8] = molecular target: T1, Bcl2-associated agonist of cell death (Homo sapiens) (UniProt Q92934); test: Induction of BAD phosphorylation in human SH-SY5Y cells at 3 uM preincubated for 24 hrs followed by H2O2 addition for 1 hr by pathscan sandwich immunoassay; assay type: cell-based
T1 sequence (whole entry): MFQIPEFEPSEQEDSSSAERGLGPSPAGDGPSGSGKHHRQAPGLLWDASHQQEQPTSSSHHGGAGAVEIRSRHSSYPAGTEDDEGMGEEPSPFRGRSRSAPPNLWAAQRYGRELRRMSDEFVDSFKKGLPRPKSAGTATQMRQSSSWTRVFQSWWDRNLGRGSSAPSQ

[9] = Antioxidant activity assessed as DPPH free radical scavenging activity after 30 mins incubation in dark by UV-Vis spectrophotometric analysis; assay type: functional
[10] = molecular target: Proline-rich AKT1 substrate 1 (Homo sapiens) (UniProt Q96B36); test: Induction of PRAS40 phosphorylation in human SH-SY5Y cells at 3 uM preincubated for 24 hrs followed by H2O2 addition for 1 hr by pathscan sandwich immunoassay; assay type: cell-based
[11] = Neurotoxicity against human SH-SY5Y cells assessed as reduction in cell viability at 10 uM after 24 hrs by MTT assay; assay type: toxicity, cell-based
[12] = Antioxidant activity assessed as DPPH free radical scavenging activity after 30 mins incubation in dark; assay type: functional
[13] = Metal chelating activity assessed as Fe2+-compound complex fromation incubated for 5 mins in presence of ferrous chloride hexahydrate followed by ferrozine addition measured after 10 mins

Structure (SMILES) | viability at 3 µM [1] | Activity [2] | Activity [4] | Activity [5] | other results
Oc1ccc2c(=S)cc(-c3ccccc3)oc2c1O | 72.4% |  |  |  | 
Oc1ccc2c(=S)cc(-c3cccnc3)oc2c1O | < 60% |  |  |  | 
Oc1cc(O)c2c(=S)cc(-c3ccc(O)c(O)c3)oc2c1 | 67.4 to 73% | Non-Toxic |  |  | 
N#Cc1ccc(-c2cc(=S)c3ccc(O)c(O)c3o2)cc1 | 106% | Non-Toxic | 1.3% | 3.9% | Activity [3]: > 70%; Activity [6]: Active; Activity [7]: Active; Activity (SH-SY5Y): Active
O=c1cc(-c2ccco2)oc2c(O)c(O)ccc12 | < 60% |  |  |  | 
O=c1cc(-c2ccccc2)oc2c(O)c(O)ccc12 [7,8-DIHYDROXYFLAVONE] | 96.2 to 97% | Non-Toxic | 1.4% | 3.7% | Activity [8]: Active; IC50 [9]: 15.5 µM
O=c1cc(-c2ccc(Cl)cc2)oc2c(O)c(O)ccc12 | 93.4% |  | 1.4% | 3.7% | Activity [7]: Active
O=c1cc(-c2ccccc2)oc2cc(O)cc(O)c12 [CHRYSIN] | < 50% |  |  |  | 
Oc1ccc2c(=S)cc(-c3ccco3)oc2c1O | < 60% |  |  |  | 
O=c1cc(-c2cccs2)oc2c(O)c(O)ccc12 | < 60% |  |  |  | 
Oc1ccc2c(=S)cc(-c3ccc(F)cc3)oc2c1O | 97.4% | Non-Toxic |  |  | 
N#Cc1ccc(-c2cc(=O)c3ccc(O)c(O)c3o2)cc1 | 84.6% |  |  |  | 
Oc1ccc2c(=S)cc(-c3ccc(Cl)cc3)oc2c1O | 107% | Non-Toxic | 1.7% | 5% | Activity [3]: > 70%; Activity [6]: Active; Activity [7]: Active; Activity [8]: Active; Activity [10]: Active; Activity (SH-SY5Y): Active
O=c1cc(-c2ccc(Br)cc2)oc2c(O)c(O)ccc12 | 84% | Non-Toxic |  |  | 
Oc1cc(O)c2c(=S)cc(-c3ccccc3)oc2c1 | < 50% |  |  |  | 
Oc1ccc2c(=S)cc(-c3cccs3)oc2c1O | < 60% |  |  |  | 
O=c1cc(-c2ccc(O)c(O)c2)oc2cc(O)cc(O)c12 [LUTEOLIN] | 98.3% |  | 1.9% | 3.4% | 
Oc1ccc2c(=S)cc(-c3ccc(Br)cc3)oc2c1O | 97.8% |  | 1.6% | 4.4% | Activity [11]: 52%; Activity [8]: Active
O=C1O[C@H]([C@@H](O)CO)C(O)=C1O [ASCORBIC ACID] |  |  | 1.3% |  | IC50 [12]: 330 µM
O=C(O)CN(CCN(CC(=O)O)CC(=O)O)CC(=O)O [EDETIC ACID] |  |  |  | 6.9% | IC50 [13]: 42 µM
O=c1cc(-c2ccc(F)cc2)oc2c(O)c(O)ccc12 | 88.8% | Non-Toxic |  |  | 
O=c1cc(-c2cccnc2)oc2c(O)c(O)ccc12 | < 60% |  |  |  | 
